Measurements reported in BindingDB's records for doi:10.1016/S0960-894X(01)80770-8 (1993).
Counter-ions that a name gives are not always drawn.

Assays:
[1] = target: S-adenosylmethionine decarboxylase proenzyme (Escherichia coli) (UniProt P0A7F6); test: Compound was evaluated for its inhibitory activity against AdoMet-DC from Escherichia coli
[2] = Compound was evaluated to inactivate the bacterial AdoMet-DC

S-adenosylmethionine decarboxylase proenzyme (Escherichia coli), sequence (P0A7F6 whole entry, looked up): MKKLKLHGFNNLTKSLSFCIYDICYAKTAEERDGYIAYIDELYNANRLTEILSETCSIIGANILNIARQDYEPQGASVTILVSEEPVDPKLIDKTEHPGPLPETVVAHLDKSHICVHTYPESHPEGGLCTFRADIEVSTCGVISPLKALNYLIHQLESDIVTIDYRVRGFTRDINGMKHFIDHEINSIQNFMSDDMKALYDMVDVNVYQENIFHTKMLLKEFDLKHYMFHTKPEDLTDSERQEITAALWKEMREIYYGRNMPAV

C[S+](CCCC(N)C#N)C[C@H]1O[C@@H](n2cnc3c(N)ncnc32)[C@H](O)[C@@H]1O (stereo partly drawn) [2-amino-5-({[(2S,3S,4R)-5-(6-amino-9H-purin-9-yl)-3,4-dihydroxyoxolan-2-yl]methyl}(methyl)-sulfanyl)pentanenitrile dihydrobromide]
IC50 [1]: 50 µM

N#CC(N)CCSC[C@H]1O[C@@H](n2cnc3c(N)ncnc32)[C@H](O)[C@@H]1O (stereo not given in full)
IC50 [1]: 179 µM

C[S+](CCC(N)C#N)C[C@H]1O[C@@H](n2cnc3c(N)ncnc32)[C@H](O)[C@@H]1O (stereo partly drawn) [2-amino-4-({[(2S,3S,4R)-5-(6-amino-9H-purin-9-yl)-3,4-dihydroxyoxolan-2-yl]methyl}(methyl)-sulfanyl)butanenitrile dihydrobromide]
IC50 [1]: 9 µM | Ki [2]: 31.1 µM

N#CC(N)CCCSC[C@H]1O[C@@H](n2cnc3c(N)ncnc32)[C@H](O)[C@@H]1O (stereo not given in full)
IC50 [1]: 205 µM
